Where two headings read alike, the source gives them in different places.
What was measured:
[1] = test system: recombinant IAV laboratory strain A/Puerto Rico/8/34-NS116-GFP; conditions: cited from earlier work
[2] = in vitro
[3] = test system: IAV(H1N1)pdm09; design: method as in PMID 24498245; conditions: preincubation of particles for 2 h with 50 µg/mL (265 µM); A549 cells; cited from earlier work
[4] = test system: IAV(H1N1)pdm09 isolate I1; assay: microbe, parasite or virus in culture; format: cell-based, influenza A virus; conditions: for inhibition at 2 µM / inhibition at 20 µM / inhibition at 200 µM: H1N1, 48 h, read-out: anti-IAV activity
[5] = target: IAV neuraminidase; conditions: cited from earlier work
[6] = test system: MDCK II cells; assay: cells; conditions: Canis lupus familiaris, 48 h, read-out: cell vitality

| Structure (SMILES) | EC50 [1] [µM] | CC50 at 48 h [2] [µM] | effect on virus replication [3] | IC50 ([4]; Influenza A virus, H1N1) [µM] | inhibition at 2 µM ([4]; Influenza A virus) [%] | inhibition at 20 µM ([4]; Influenza A virus) [%] | inhibition at 200 µM ([4]; Influenza A virus) [%] | IC50 [5] [µM] | viability at 2 µM [6] [%] | viability at 20 µM [6] [%] | viability at 200 µM [6] [%] | IC50 [4] [µM] | CC50 at 48 h ([2]; dog) [µM] |
| --- | --- | --- | --- | --- | --- | --- | --- | --- | --- | --- | --- | --- | --- |
| O=C(O)c1cc(O)c(O)c(O)c1 [compound 17, gallic acid monohydrate, reference compound] | ~50 | 197 | only little effect | > 200 | 0 | -1 | 14 ± 11 | > 500 | 106 ± 5 | 107 ± 8 | 49 ± 18 | – | – |
| Oc1cc(O)c2c(c1)O[C@H](c1cc(O)c(O)c(O)c1)[C@H](O)C2 [compound 4, epigallocatechin] | – | > 200 | – | > 200 | 0 | 0 | 26 ± 22 | – | 101 ± 4 | 106 ± 1 | 86 ± 17 | – | – |
| O=C(OC[C@H]1O[C@@H](OC(=O)c2cc(O)c(O)c(O)c2)[C@H](OC(=O)c2cc(O)c(O)c(O)c2)[C@@H](OC(=O)c2cc(O)c(O)c(O)c2)[C@@H]1OC(=O)c1cc(O)c(O)c(O)c1)c1cc(O)c(O)c(O)c1 [compound 12, 1,2,3,4,6-penta-O-galloyl-β-D-glucose, reference compound] | – | 83 | – | 22 | 3 ± 3 | 46 ± 9 | 35 ± 1 | – | 91 ± 7 | 57 ± 14 | 37 ± 3 | ≤ 22 | – |
| Oc1cc(O)c2c(c1)O[C@H](c1ccc(O)c(O)c1)[C@H](O)C2 [compound 2, (−)-epicatechin] | – | > 200 | – | > 200 | 0 | 0 | 1 ± 1 | – | 101 ± 2 | 104 ± 4 | 124 ± 20 | – | – |
| O=c1oc2c(O)c(O)cc3c(=O)oc4c(O)c(O)cc1c4c23 [compound 15, ellagic acid, reference compound] | – | > 200 | – | > 200 | 0 | 1 ± 1 | 4 ± 1 | – | 106 ± 1 | 110 ± 3 | 108 ± 2 | – | – |
| Oc1cc(O)c2c(c1)O[C@H](c1ccc(O)c(O)c1)[C@H](O)[C@H]2c1c(O)cc2c(c1O)C[C@@H](O)[C@@H](c1ccc(O)c(O)c1)O2 [compound 9, epicatechin-(4β→6)-epicatechin] | – | – | – | ≤ 163 | 0 | 0 | 63 ± 4 | – | 100 ± 3 | 84 ± 4 | 57 ± 4 | – | > 200 |
| O=C1O[C@H]2[C@@H]3OC(=O)c4cc(O)c(O)c(O)c4-c4c(cc(O)c(O)c4O)C(=O)OC[C@H]2O[C@@H](OC(=O)c2cc(O)c(O)c(O)c2)[C@@H]3OC(=O)c2cc(O)c(O)c3c2[C@@H]2C1=CC(=O)[C@](O)(O3)C2(O)O [compound 13, geraniin, reference compound] | – | – | – | ≤ 388 | 0 | 1 ± 1 | 25 | – | 99 ± 1 | 107 ± 2 | 35 ± 3 | – | 162 |
| O=C(/C=C/c1ccc(O)c(O)c1)O[C@H](Cc1ccc(O)c(O)c1)C(=O)O [compound 16, rosmarinic acid, reference compound] | – | > 200 | – | > 200 | 0 | 0 | 1 ± 1 | – | 102 ± 1 | 103 ± 1 | 102 ± 1 | – | – |
